Reference: PMC11299522 (Journal of medicinal chemistry, 2023)

Legend:
[1] = system: wild-type (WT) HEK293 cells; test: Pink Flamindo cAMP assay control in wild-type HEK293 cells lacking μORs; type: cell-based; details: compound 1 μM, AUC analysis, n = 3
μOR = details: cited from earlier work

| Molecule | effect on cAMP accumulation in the absence of the hμOR [1] | EC100 (μOR) [nM] |
| --- | --- | --- |
| C=C(C)[C@@H]1CCC(C)=C[C@H]1c1c(O)cc(CCCCC)cc1O [JGC1, (1′R,2′R)-5′-Methyl-4-pentyl-2′-(prop-1-en-2-yl)-1′,2′,3′,4′-tetrahydro-[1,1′-biphenyl]-2,6-diol] | do not impact cAMP accumulation |  |
| [D-Ala,[2] N-MePhe,[4] Gly-ol]-enkephalin [DAMGO] |  | 250 |
